Test results from ChEMBL document CHEMBL1201862, “PubChem BioAssay data set” (2004).
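Cells were grown in 96-well plates and exposed to each compound for 48 hours at five concentrations; endpoints were interpolated linearly between bracketing concentrations, or set to the highest concentration if not reached. Here, GI50 denotes the concentration required for 50% inhibition of growth.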 Activity calls are given as the source filed them. Rule as the data show it: active = GI50 up to about 1.1 µM and inactive = higher.

Legend:
Experiment in all cases: NCI-60 cell line screen, 48 h
SNB-78 = system: SNB-78
LXFL 529 = system: LXFL 529
KM-20L2 = system: KM-20L2
DMS-114 = system: DMS-114
RXF 631 = system: RXF 631
HOP-18 = system: HOP-18
DLD-1 = system: DLD-1
XF498 = system: XF498

Measured: GI50

CCOC(=O)Nc1ccc(S(=O)(=O)OC)cc1.CCOC(=O)Nc1ccc(S(=O)(=O)OC)cc1.Cc1cn(C2CC(O)C(CO)O2)c(=O)[nH]c1=O
inactive: SNB-78 > 100 µM | LXFL 529 > 100 µM | KM-20L2 > 100 µM | DMS-114 69.7 µM | RXF 631 > 100 µM | HOP-18 > 100 µM | DLD-1 45.5 µM

O=C1c2ccccc2-c2cccc3ccc(Cc4ccc5ccccc5c4)c1c23
inactive: SNB-78 > 100 µM | XF498 30.3 µM | KM-20L2 > 100 µM | RXF 631 > 100 µM | DLD-1 > 100 µM

O=C1Cc2ccccc2N1c1c(Cl)cccc1Cl
inactive: SNB-78 74.5 µM | LXFL 529 87.7 µM | XF498 21.6 µM | KM-20L2 30.2 µM | DMS-114 29.1 µM | RXF 631 > 100 µM | HOP-18 > 100 µM | DLD-1 47.9 µM

CCOc1cccc2[s+]snc12
inactive: SNB-78 49.3 µM | LXFL 529 77.4 µM | XF498 25.2 µM | KM-20L2 > 100 µM | RXF 631 > 100 µM | HOP-18 77.8 µM | DLD-1 43.9 µM

CN(C)c1ccc(C=C2C(=O)OC(C)(C)OC2=O)cc1Br
inactive: SNB-78 > 10 µM | LXFL 529 > 100 µM | XF498 > 100 µM | KM-20L2 > 100 µM | DMS-114 > 100 µM | RXF 631 > 100 µM | HOP-18 > 100 µM | DLD-1 > 100 µM

COc1ccc(NC(=O)C(=O)Cc2ccc([N+](=O)[O-])c([N+](=O)[O-])c2CC(=O)C(=O)Nc2ccc(OC)cc2OC)c(OC)c1
inactive: SNB-78 > 100 µM | LXFL 529 > 100 µM | KM-20L2 > 100 µM | DMS-114 > 100 µM | RXF 631 > 100 µM | HOP-18 > 100 µM | DLD-1 > 100 µM

CCC1N2CCCCC2[C@@H]2c3[nH]c4ccccc4c3CCN12 (stereo not given in full)
inactive: SNB-78 > 100 µM | LXFL 529 > 100 µM | XF498 > 100 µM | KM-20L2 > 100 µM | DMS-114 > 100 µM | RXF 631 > 100 µM | HOP-18 > 100 µM | DLD-1 > 100 µM

C#CCOCn1cnc2ncnc(Cl)c21
inactive: SNB-78 > 100 µM | LXFL 529 > 100 µM | XF498 > 100 µM | KM-20L2 > 100 µM | DMS-114 > 100 µM | RXF 631 > 100 µM | HOP-18 > 100 µM | DLD-1 > 100 µM

COC(=O)CCC(=O)CC(=O)C1=NS(=O)(=O)c2nc(S(N)(=O)=O)c(Cl)cc2N1
inactive: LXFL 529 > 100 µM | XF498 > 100 µM | KM-20L2 72.9 µM | DMS-114 > 100 µM | RXF 631 > 100 µM | HOP-18 > 100 µM | DLD-1 > 100 µM

CC(C)COC(=O)N1N=NC2C3CC(=O)C(O3)C21 (stereo not given)
inactive: SNB-78 > 100 µM | LXFL 529 > 100 µM | KM-20L2 > 100 µM | DMS-114 > 100 µM | RXF 631 > 100 µM | HOP-18 > 100 µM | DLD-1 > 100 µM

CC1(c2ccc(F)cc2)C(C#N)C(=O)NC(=O)C1C#N (stereo not given)
inactive: LXFL 529 > 100 µM | XF498 > 100 µM | KM-20L2 > 100 µM | DMS-114 > 100 µM | RXF 631 > 100 µM | DLD-1 > 100 µM

c1ccc(N2CCN(CCCN3CCc4c([nH]c5ccccc45)C3c3cccnc3)CC2)cc1 (stereo not given)
inactive: SNB-78 > 100 µM | LXFL 529 > 74.5 µM | XF498 5.04 µM | KM-20L2 39.4 µM | DMS-114 > 100 µM | RXF 631 > 55.7 µM | HOP-18 > 100 µM | DLD-1 72.8 µM

Cc1ccc2c(c1-c1ccccc1)C(=O)OC2
inactive: SNB-78 37 µM | LXFL 529 > 100 µM | KM-20L2 20.4 µM | DMS-114 99.3 µM | RXF 631 > 100 µM | HOP-18 > 100 µM | DLD-1 > 100 µM

CC(=O)OCc1nnn2c1C(OC(C)=O)CC2 (stereo not given)
inactive: SNB-78 > 100 µM | LXFL 529 > 100 µM | XF498 > 100 µM | KM-20L2 > 100 µM | DMS-114 > 100 µM | RXF 631 > 100 µM | DLD-1 > 100 µM
